Several values for one entry are separate records, joined by “and”; a condition that tells them apart may be missing. Equal values may be shown once.
Experiments:
[1] = target: T1, GluN2A subunit of NMDAR (isolated evoked NMDAR currents in CA1 hippocampal neurons) (Mus musculus, UniProt P35436); assay: patch-clamp phase 1: NMDAR EPSCs with GluN2B subunits blocked by Ifenprodil; format: cell-based, C57Bl6/J mice; settings: Ifenprodil 3 μM alone; control = 100; mean of 10 cells
T1 construct: Sagittal hippocampal brain slices were obtained using standard brain slicing methods; from tissue; host or cells: acute hippocampal slices of C57Bl6/J mice, CA1 pyramidal neurons
Text: (§1) Selective antagonists of GluN2A and GluN2B subunits were also used.
(§2) Twelve (C57Bl6/J) male mice 4-5 weeks-old were obtained from Charles River, France and housed in an animal facility. Animal care was compliant with national and local Ethics committee recommendations. Sagittal hippocampal brain slices were obtained using standard brain slicing methods (approximately 6 slices per mouse) (Knobloch et al. 2007). Mice were anesthetized with isoflurane and then decapitated. […]
(§3) The signal was amplified with an Axopatch 200B amplifier (Molecular Devices, Union City, CA), digitized by a Digidata 1550 interface (Molecular Devices). Recordings were acquired using Clampex 10 (Molecular Devices) and analyzed with Clampfit (Molecular Devices). […]
(§4) A total of 12 mice was dedicated to the study. A total of 23 neurons were recorded (10 per group (phases 1 and 2) and 3 in a control phase (phase 0) as follow. In each recording session, 10 EPSCs were induced in response to Schaffer collateral stimulations. Measurements of the amplitudes (average of 10 EPCS) were assessed. Phase 0 represented a validation phase aiming at confirming that GluN2A and GluN2B were the predominant NR2 subunits involved in the EPSCs evoked by Schaffer collateral stimulation. We expected the residual current at the end of phase 0 to be minimal.

[2] = test system: NMDA EPSCs in hippocampal CA1 pyramidal neurons; assay: patch-clamp phase 0: sequential application of NVP-AAM077 and Ifenprodil on NMDA EPSCs; format: cell-based, C57Bl6/J mice; settings: 3 cells, data not shown
Method: Twelve (C57Bl6/J) male mice 4-5 weeks-old were obtained from Charles River, France and housed in an animal facility. Animal care was compliant with national and local Ethics committee recommendations. Sagittal hippocampal brain slices were obtained using standard brain slicing methods (approximately 6 slices per mouse) (Knobloch et al. 2007). Mice were anesthetized with isoflurane and then decapitated. […] Acute slices (350 μm thick) were prepared using a vibratome (VT 1000S; Leica Microsystems, Bannockburn, IL). Sections were incubated in standard aCSF at room temperature for at least 1 h before recordings. […] Recordings were acquired using Clampex 10 (Molecular Devices) and analyzed with Clampfit (Molecular Devices). […] A total of 23 neurons were recorded (10 per group (phases 1 and 2) and 3 in a control phase (phase 0) as follow. In each recording session, 10 EPSCs were induced in response to Schaffer collateral stimulations. Measurements of the amplitudes (average of 10 EPCS) were assessed. Phase 0 represented a validation phase aiming at confirming that GluN2A and GluN2B were the predominant NR2 subunits involved in the EPSCs evoked by Schaffer collateral stimulation. We expected the residual current at the end of phase 0 to be minimal.

[3] = target: T2, GluN2B subunit of NMDAR (isolated evoked NMDAR currents in CA1 hippocampal neurons) (Mus musculus, UniProt Q01097); assay: patch-clamp phase 2: NMDAR EPSCs with GluN2A subunits blocked by NVP-AAM077; format: cell-based, C57Bl6/J mice; settings: NVP-AAM077 0.4 μM alone; control = 100; mean of 10 cells
T2 construct: Sagittal hippocampal brain slices were obtained using standard brain slicing methods; from tissue; host or cells: acute hippocampal slices of C57Bl6/J mice, CA1 pyramidal neurons
Text: as §1, §2, §3, §4

[4] = test system: subchronic PCP-induced cognitive deficits in mice; assay: T-maze continuous alternation task in subchronic PCP mice; format: in vivo, Swiss CD-1 mice; settings: n=10
Text: Phenycyclidine (PCP) is an antagonist of NMDA receptor, its administration in healthy humans produces schizophrenia-like symptoms, therefore PCP is often used to mimic schizophrenia in rodents. […] In addition, brain samples were collected shorlty after the T-Maze test to measure the levels of cerebral biomarkers involved in synaptic plasticity.
Sixty (60) male Swiss CD-1 mice were purchased from Janvier Labs (Le Genest-Saint-Isle, France) one week before the start of the study for acclimation. Mice were group-housed (6-8 mice per Eurostandard type Ill cage) and maintained in a room with controlled temperature (21-22° C.) under a reversed 12 h/12 h light-dark cycle (lights on: 5:[…]; lights off: 05:30 am) with food and water available ad libitum. The weight of mice ranged from 25.9 and 36.4 g. […]
Nicotine used as a positive control was administered at a dose of 0.4 mg/kg intraperitoneally 30 minutes prior to the T-maze trial
After administration of compounds at different timepoints all animals were tested for continuous alternation task in the T-Maze. The T-maze apparatus was made of gray Plexiglas with a main stem (55-cm long×10-cm wide×20-cm high) and two arms (30-cm long×10-cm wide×20-cm high) positioned at a 90-degree angle relative to the main stem. A start box (15-cm long×10-cm wide) was separated from the main stem by a guillotine door. Horizontal doors were also provided to close specific arms during the force choice alternation task. The experimental protocol consisted in one single session that started with 1 “forced-choice” trial, followed by 14 “free-choice” trials (Gerlai, 1998). In the first “forced-choice” trial, the mouse was confined 5 s in the start arm and then released while either the left or right goal arm was blocked by closing the sliding door. Then, it walked through the maze, eventually entered the open goal arm, and then returned to the start position. Immediately after the mouse came back to the start position, the left or right goal door was opened (i.e. the two goal doors were opened), and the mouse could choose freely between the left and right goal arms (first “free choice trial”). The mouse was considered as entered in the arm when it placed its four paws in the arm. The opposite goal door was then closed until the animal returned to the start arm. Then, a second “free choice trial” began by the opening of the closed goal door (i.e. the two goal doors were opened), leaving the choice to the mouse to enter either into the right or the left arm. The session was considered finished as soon as 14 free-choice trials had been performed in less than 10 min, and the mouse was removed from the maze. The time needed to reach these 14 “free-choices” was recorded.
The percent of spontaneous alternations was calculated as number of spontaneous alternations divided by the number of free-choice trials, an index of spatial short-term working memory. The apparatus was cleaned between each animal using alcohol (70%). Urine and feces were removed from the maze. During the trials, animal handling and the visibility of the operator were minimized as much as possible. Animals were tested in a random and blind manner.

[5] = test system: scopolamine-induced spatial short-term working memory deficits in mice; assay: Y-maze spontaneous alternation in the scopolamine mouse model of amnesia; format: in vivo, Swiss mice; settings: for spontaneous alternance in Y-maze: n=6; for effect on scopolamine-induced spatial short-term working memory impairments (Y-maze): data not shown
Method: Male Swiss mice, weighing 30-35 g, from JANVIER (Saint Berthevin, France), were housed in groups with access to food and water ad libitum, except during behavioral experiments. They were kept in a temperature and humidity-controlled animal facility on a 12 h/12 h light/dark cycle (lights off at 07:[…]). Mice were numbered by marking their tail with permanent markers. All animal procedures were conducted in strict adherence to the European Union directive of Sep. 22, 2010 (2010/63/UE). In each cage (n=6 per cage), treatment regimen was the same. Animals were tested in a random and blind manner.
Donepezil (DPZ) used as positive control was administered per os at a dose of 1 mg/kg once 1 h before the YM test.
Scopolamine was administered at a dose of 0.5 mg/kg by subcutaneous injection 30 minutes before the YM session.
After administration of compounds at different timepoints all animals were tested for spontaneous alternation performance in the YM, an index of spatial working memory. The YM was designed according to Itoh and collaborators (1993) and Hiramatsu and Inoue (1999) and is made of grey polyvinylchloride. Each arm is 40-cm long, 13-cm high, 3-cm wide at the bottom, 10-cm wide at the top, and converging at an equal angle. Each mouse was placed at the end of one arm and allowed to move freely through the maze during an 8-min session. The series of arm entries, including possible returns into the same arm, were checked visually. An alternation was defined as entries into all three arms on consecutive occasions. The number of maximum alternations is therefore the total number of arm entries minus two and the percentage of alternation was calculated as (actual alternations/maximum alternations)×100. Parameters included the percentage of alternation, called memory index, and total number of arm entries, called exploration index (Maurice et al., 1996, 1988; Meunier et al., 2006; Villard et al., 2009, 2011).
Animals showing an extreme behavior (alternation percentage <20% or >90% or number of arm entries <10) would have been discarded from the calculation. No animal was discarded accordingly.

T1 sequence (P35436 23-1464, other chains not shown): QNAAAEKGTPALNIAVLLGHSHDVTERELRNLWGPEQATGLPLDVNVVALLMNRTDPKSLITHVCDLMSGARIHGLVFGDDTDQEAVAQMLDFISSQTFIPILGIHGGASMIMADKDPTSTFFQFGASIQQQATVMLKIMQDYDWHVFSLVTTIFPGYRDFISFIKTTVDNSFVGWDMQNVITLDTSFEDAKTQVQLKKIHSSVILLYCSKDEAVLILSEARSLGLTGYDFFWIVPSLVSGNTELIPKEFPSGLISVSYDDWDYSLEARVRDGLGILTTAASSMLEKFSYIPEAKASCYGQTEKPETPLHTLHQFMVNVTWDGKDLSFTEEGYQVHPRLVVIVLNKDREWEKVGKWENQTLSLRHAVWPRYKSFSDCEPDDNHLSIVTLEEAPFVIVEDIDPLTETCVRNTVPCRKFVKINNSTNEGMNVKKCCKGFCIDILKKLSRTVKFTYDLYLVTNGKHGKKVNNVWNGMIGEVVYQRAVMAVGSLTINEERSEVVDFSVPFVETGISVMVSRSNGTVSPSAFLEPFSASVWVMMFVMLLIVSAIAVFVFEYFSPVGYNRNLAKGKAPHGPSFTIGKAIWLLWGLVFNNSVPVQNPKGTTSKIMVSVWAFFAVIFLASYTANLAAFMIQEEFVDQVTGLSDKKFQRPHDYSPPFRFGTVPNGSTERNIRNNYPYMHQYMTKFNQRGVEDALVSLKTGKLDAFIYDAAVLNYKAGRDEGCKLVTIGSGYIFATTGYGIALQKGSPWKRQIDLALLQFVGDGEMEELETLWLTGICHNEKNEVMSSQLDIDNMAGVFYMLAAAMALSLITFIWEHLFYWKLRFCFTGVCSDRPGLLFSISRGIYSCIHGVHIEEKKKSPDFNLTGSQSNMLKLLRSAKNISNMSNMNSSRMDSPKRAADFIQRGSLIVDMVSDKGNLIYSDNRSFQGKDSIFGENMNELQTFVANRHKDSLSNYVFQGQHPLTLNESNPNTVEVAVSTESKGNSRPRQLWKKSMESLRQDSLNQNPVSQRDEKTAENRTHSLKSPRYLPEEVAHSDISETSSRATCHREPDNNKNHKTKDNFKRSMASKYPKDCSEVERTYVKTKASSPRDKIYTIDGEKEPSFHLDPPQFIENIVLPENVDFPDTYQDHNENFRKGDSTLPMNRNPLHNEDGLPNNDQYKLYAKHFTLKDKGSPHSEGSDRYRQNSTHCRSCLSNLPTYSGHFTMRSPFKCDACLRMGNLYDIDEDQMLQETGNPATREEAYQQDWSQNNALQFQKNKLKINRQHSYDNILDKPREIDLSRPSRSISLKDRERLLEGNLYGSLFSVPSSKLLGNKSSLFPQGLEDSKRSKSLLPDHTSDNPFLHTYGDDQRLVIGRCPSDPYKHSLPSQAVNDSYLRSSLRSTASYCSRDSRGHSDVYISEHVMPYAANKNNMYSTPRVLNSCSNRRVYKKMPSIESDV
T2 sequence (Q01097 27-1482, other chains not shown): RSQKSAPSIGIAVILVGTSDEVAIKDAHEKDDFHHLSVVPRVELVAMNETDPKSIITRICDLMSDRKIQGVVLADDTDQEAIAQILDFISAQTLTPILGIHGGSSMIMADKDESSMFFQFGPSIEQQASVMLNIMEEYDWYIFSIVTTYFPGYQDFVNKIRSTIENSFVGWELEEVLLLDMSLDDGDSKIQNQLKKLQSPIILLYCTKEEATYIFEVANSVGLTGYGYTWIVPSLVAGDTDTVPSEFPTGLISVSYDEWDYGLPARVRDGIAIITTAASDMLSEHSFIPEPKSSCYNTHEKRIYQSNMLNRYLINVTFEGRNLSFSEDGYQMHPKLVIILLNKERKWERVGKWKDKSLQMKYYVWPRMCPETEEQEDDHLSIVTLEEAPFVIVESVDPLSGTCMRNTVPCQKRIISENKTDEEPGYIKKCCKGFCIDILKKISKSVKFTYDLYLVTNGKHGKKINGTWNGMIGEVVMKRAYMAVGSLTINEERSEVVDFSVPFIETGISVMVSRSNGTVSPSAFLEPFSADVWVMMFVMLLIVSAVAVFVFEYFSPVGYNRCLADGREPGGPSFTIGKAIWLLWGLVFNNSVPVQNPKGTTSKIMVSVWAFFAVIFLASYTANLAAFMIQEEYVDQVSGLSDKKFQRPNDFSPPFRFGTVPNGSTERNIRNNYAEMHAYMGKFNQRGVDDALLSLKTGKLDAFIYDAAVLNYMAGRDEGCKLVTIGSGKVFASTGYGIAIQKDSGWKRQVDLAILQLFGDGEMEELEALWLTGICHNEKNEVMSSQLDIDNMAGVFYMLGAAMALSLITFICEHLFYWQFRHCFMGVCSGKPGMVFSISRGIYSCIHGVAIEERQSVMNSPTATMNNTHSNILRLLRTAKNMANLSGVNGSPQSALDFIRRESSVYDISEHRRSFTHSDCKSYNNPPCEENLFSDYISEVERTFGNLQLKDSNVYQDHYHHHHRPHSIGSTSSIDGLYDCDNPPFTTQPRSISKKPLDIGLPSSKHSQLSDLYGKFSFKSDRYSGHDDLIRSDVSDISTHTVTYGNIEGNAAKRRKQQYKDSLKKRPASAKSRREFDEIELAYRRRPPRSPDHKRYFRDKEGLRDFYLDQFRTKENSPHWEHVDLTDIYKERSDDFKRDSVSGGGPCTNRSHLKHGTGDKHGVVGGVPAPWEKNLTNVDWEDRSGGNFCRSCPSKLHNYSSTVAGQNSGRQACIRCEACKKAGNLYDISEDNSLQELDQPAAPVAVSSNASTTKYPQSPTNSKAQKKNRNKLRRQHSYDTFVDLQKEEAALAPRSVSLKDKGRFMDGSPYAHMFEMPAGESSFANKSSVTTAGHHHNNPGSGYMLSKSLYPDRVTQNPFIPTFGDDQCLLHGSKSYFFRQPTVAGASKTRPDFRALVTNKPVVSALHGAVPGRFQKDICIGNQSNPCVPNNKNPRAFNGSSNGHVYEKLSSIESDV

With CC(C(O)c1ccc(O)cc1)N1CCC(Cc2ccccc2)CC1 (stereo not shown) [Ifenprodil] the “Normalized amplitude of evoked isolated NMDA excitatory postsynaptic currents” value [1] was 78.74 % of control and the “NMDA EPSCs amplitude” value ([2]; NVP-AAM077 0.4 μM + Ifenprodil 3 μM) was “significantly decreased”.

In the case of C[C@H](NC(c1cccc2[nH]c(=O)c(=O)[nH]c12)P(=O)(O)O)c1ccc(Br)cc1 (stereo partly shown) [NVP-AAM077], the “Normalized amplitude of evoked isolated NMDA excitatory postsynaptic currents” value [3] is reported as 56.35 % of control and the “NMDA EPSCs amplitude” value ([2]; NVP-AAM077 0.4 μM) is reported as “significantly decreased”.

In the case of CN1CCCC1c1cccnc1 (stereo not shown) [Nicotine, reference compound], the “Spontaneous alternations in T-maze” value ([4]; PCP + 0.4 mg/kg i.p. 30 min before trial (D14), PCP alone 30.71, control 66.43, 0.4 mg/kg) is reported as 62% and 62.14%.

With c1ccc(C2(N3CCCCC3)CCCCC2)cc1 [PCP, phencyclidine, reference compound] the “Spontaneous alternations in T-maze” value ([4]; PCP 0.2 mg/kg s.c. twice daily D1-D11, vehicle-treated, saline control 66.43) was 31% and 30.71%.

In the case of CN1[C@@H]2C[C@@H](OC(=O)[C@H](CO)c3ccccc3)C[C@H]1[C@@H]1O[C@@H]12 [Scopolamine, reference compound], the “spontaneous alternance in Y-maze” value ([5]; scopolamine 0.5 mg/kg s.c. 30 min before test, alone, control 70, mean) is reported as 45%.

In the case of “W-S-G-W-S-S-C-S-R-S-C-G [NX210] (WSGWSSCSRSCG; reduced linear form)”, the “effect on scopolamine-induced spatial short-term working memory impairments (Y-maze)” value ([5]; 15 mg/kg i.p. once 48 h before the test) is reported as “maintained but less pronounced”, the “effect on scopolamine-induced spatial short-term working memory impairments (Y-maze)” value ([5]; administered i.p. 2 h or 1 h before the test) is reported as “No effect” and the “effect on scopolamine-induced spatial short-term working memory impairments (Y-maze)” value ([5]; dose lower than 10 mg/kg i.p.) is reported as “No effect”. For the same compound, the “dose with maximum effect on scopolamine-induced memory impairments (Y-maze)” value ([5]; i.p. once 24 h before the test, bell-shaped dose-response curve) was 15 mg/kg, the “spontaneous alternance in Y-maze” value ([5]; scopolamine + 10 mg/kg i.p. 24 h before test, scopolamine alone 45, control 70, 10 mg/kg) was 59% and the “spontaneous alternance in Y-maze” value ([5]; scopolamine + 15 mg/kg i.p. 24 h before test, scopolamine alone 45, control 70, 15 mg/kg) was 69%.
